This is an account of results in patent US20250082658A1, “CELL PROLIFERATION RETARDANT, COSMETIC CONTAINING SAME, AND CELL PROLIFERATION RETARDATION METHOD” (NATIONAL UNIVERSITY CORPORATION KAGAWA UNIVERSITY, priority 2022, published 2025).

Assay [1] has as its system human pancreatic cancer cells PK-1. The assay is described as follows: Metabolome analysis of central energy metabolism (C-SCOPE), PK-1. The format is cell-based. The conditions noted are these: 50 mM, 12 hours. How it is done: (§1) Cultured human pancreatic cancer cells PK-1 and PANC-1 (5.0×10^6) were cultured for 12 hours at 37° C. in a 5% CO2 atmosphere, either without addition of a sugar (control) or with addition of 50 mM D-glucose or D-allose. Samples of both cells were then prepared according to the protocol provided by Human Metabolome Technologies, Inc. (Tsuruoka City, Yamagata Prefecture. Japan) and measured for 116 substances (see Table 1) related to central energy metabolism (glycolysis, TCA cycle, amino acid metabolism and nucleic acid metabolism) using an Analysis Service provided by the same company (C-SCOPE (https://humanmetabolome.com/jpn/service/analysis/cscope/)), after which principal component analysis (PCA) (FIG. 15), heat map analysis (FIGS. 16 to 19) and pathway map analysis (FIG. 20) were carried out based on the measurement results.

The subject of another assay is cell cycle. The conditions noted are these: reported (PTL 1); cited from earlier work.
Assay [2] concerns PK-1 pancreatic cancer cells. Kind of assay: Apoptosis by flow cytometry with annexin V staining, PK-1. The conditions noted are these: 50 mM. The format is cell-based, human. How it is done:
Apoptosis was evaluated by flow cytometry using annexin V staining.
Background: In flow cytometry, cells or beads pass a laser one at a time.

For assay [3], the system named is PK-1 pancreatic cancer cells. The assay is described as follows: Cell cycle evaluation by PI/RNase flow cytometry, PK-1. The format is cell-based, human. The conditions noted are these: 50 mM. How it is done:
Considering the possibility that the growth inhibition effect on cultured human PK-1 pancreatic cancer cells by D-allose may be via arrest of the cell cycle, changes in the cell cycle were identified using flow cytometry (FACS analysis). Specifically, PK-1 cells were brought to a serum-starved state overnight and then fixed with 70% ethanol overnight at −20° C. For staining of the cellular DNA, the cells obtained as a centrifuged pellet were resuspended in 450 μL of propidium iodide (PI)/RNase solution (Cell Signaling Technology, Danvers, MA, USA), and cultured in a dark environment at room temperature for 30 minutes. Analysis was then carried out with a flow cytometer (Cytomics FC500 flow cytometry system, Beckman Coulter, Indianapolis, IN, USA) using 10,000 cells per sample.

A further assay has as its system brain tumor cells. The assay is described as follows: CytoTell fluorogenic probe cell proliferation monitoring. The class given is cell-based, human. The conditions noted are these: 50 mM; 96 hours after 24 hours probe uptake. On the procedure:
Next, CytoTell™, a fluorogenic probe for flow cytometry which is recently being used as a cell proliferation monitoring reagent, was taken up into the brain tumor cells for 24 hours, and the cells were allowed to stand for 96 hours either without administration of a sugar (control) or with administration of 50 mM D-glucose and 50 mM D-allose, and attenuation of the fluorogenic probe intensity in the cells was evaluated (FIG. 4-1).

In assay [4] the test system is U87 cells. Kind of assay: Apoptosis by flow cytometry after annexin V staining, U87. The class given is cell-based, human. The conditions noted are these: doses that induce growth inhibition, 48 hours. On the procedure:
(§2) The proportion of apoptotic cells in medium alone (control) and 48 hours after administration of D-glucose or D-allose was compared by flow cytometry analysis of the cells stained with annexin V. In order to elucidate the mechanism of the growth inhibition effect on brain tumor cells by D-allose, the cells were evaluated for apoptosis by flow cytometry after annexin V staining (FIG. 2).

Assay [5] concerns cultured human PK-1 pancreatic cancer cells. The assay is described as follows: Cell cycle time course after nocodazole arrest and release, PK-1. The conditions noted are these: 50 mM, after removal of 50 nM nocodazole (12 hours). The format is cell-based. On the procedure: Culturing was carried out for 12 hours in the presence of 50 nM nocodazole, and the cell cycle was arrested. The nocodazole was removed to restart the cell cycle, while administering medium alone (control) or D-glucose or D-allose (50 mM), after which samples were periodically taken and the cell cycle ratio was analyzed by flow cytometry.
Shown is the cell cycle ratio (G0/1 phase, S phase and G2/M phase) for cultured human pancreatic cancer cells PK-1 cultured with the schedule in FIG. 8.
Culturing was carried out according to the schedule in FIG. 8, except for administering D-mannitol or allitol instead of D-glucose or D-allose.
First, 50 nM of nocodazole was reacted with cultured human PK-1 pancreatic cancer cells for 12 hours to preemptively stop the cell cycle. The nocodazole was then removed from the culture solution to begin restart of the cell cycle, thus allowing periodic observation of the cell cycle from a reset state. The effect of D-allose on the speed of the cell cycle was investigated in detail under these experimental conditions.
Considering the possibility that the growth inhibition effect on cultured human PK-1 pancreatic cancer cells by allitol may be via arrest of the cell cycle, changes in the cell cycle were identified using flow cytometry (FACS analysis) by the same method as Example 2.

In assay [6] the test system is U87 cells. The assay is described as follows: Cell cycle evaluation by PI/RNase flow cytometry, U87. The class given is cell-based, human. The conditions noted are these: 50 mM, 24 hours. On the procedure:
(§3) The proportion of cells in each cell cycle in medium alone (control) and 48 hours after administration of D-glucose or D-allose was compared by flow cytometry analysis.
(§4) Considering the possibility that growth inhibition of brain tumor cells may be caused by arrest of the cell cycle by D-allose, flow cytometry (FACS analysis) was carried out to identify changes in the cell cycle (see Yamaguchi F, Takata M. Kamitori K, et al. Rare sugar D-allose induces specific up-regulation of TXNIP and subsequent G1 cell cycle arrest in hepatocellular carcinoma cells by stabilization of p27kip1. Int J Oncol. 2008; 32(2):377-385). Specifically, the cell cycle was evaluated by Propidium Iodide (PI)/RNase Staining Solution (Cell Signaling Technology). The cells were cultured for 24 hours using DMEM, 50 mM D-glucose or 50 mM D-allose. The cultured cells were then recovered using trypsin and washed twice with PBS, and then fixed with 70% ethanol overnight at −20° C. After washing with PBS, the cells were stained in a dark room at room temperature for 30 minutes using 500 μl of PI reagent, washed with PBS, and then monitored for luminescence at 617 nm by flow cytometry. The data were analyzed using Kaluza analysis software (Ver. 1.2. Beckman Coulter), and the effects on the cell cycle were evaluated based on changes in the cell distribution rate at each phase of the cell cycle.

Assay [7] has as its system human pancreatic cancer cells PANC-1. Kind of assay: Metabolome analysis of central energy metabolism (C-SCOPE), PANC-1. The class given is cell-based. The conditions noted are these: 50 mM, 12 hours. On the procedure: as §1
The subject of assay [8] is U251 cells. The assay is described as follows: Cell cycle evaluation by PI/RNase flow cytometry, U251. The format is cell-based, human. The conditions noted are these: 50 mM, 24 hours. On the procedure: as §3, §4
Assay [9] has as its system human pancreatic cancer cell line PK-1. The assay is described as follows: Cell cycle visualization with tFucci(CA)5, PK-1. The format is cell-based. The conditions noted are these: 50 mm, 0 to 84 hours. The source says: The human pancreatic cancer cell line PK-1 was transfected with tFucci(CA)5 (Plasmid #153521) (see Ando R., et al., Two new coral fluorescent proteins of distinct colors for sharp visualization of cell-cycle progression, bioRYiv, 2020, https://www.biorxiv.org/content/10.1101/2020.03.30.015156v2) purchased from Addgene (Massachusetts, USA), for cell cycle visualization. […] The cells were used to observe effects on the cell cycle of the human pancreatic cancer cell line PK-1 with and without addition of D-allose (50 mm).

In the next assay the test system is PK-1 cells. Kind of assay: WST-1 cell proliferation assay, PK-1. The class given is cell-based, human. The conditions noted are these: 48 hours. How it is done:
PK-1 cells, as cultured human pancreatic cancer cells, were cultured for 48 hours with addition of D-allose or D-glucose at 25 or 50 mM concentration, and then analyzed by WST-1 assay to compare the effects on cell proliferation. PK-1 cells, as cultured human pancreatic cancer cells, were cultured for 48 hours with addition of allitol or D-mannitol at 50 mM concentration, and then analyzed by WST-1 assay to compare the effects on cell proliferation.

Assay [10] concerns U251 cells. Kind of assay: WST-1 cell proliferation assay, U251. The class given is cell-based, human. The conditions noted are these: 48 hours, 3, 5, 10, 30 or 50 mM. How it is done: (§5) The cell proliferation ability in medium alone (control) and 48 hours after administration of D-glucose or D-allose was compared by WST-1 assay. U251 cells or U87 cells, as cultured human brain tumor cells, were cultured for 48 hours without administration of a sugar (control) or with addition of D-allose or D-glucose at different concentrations (3, 5, 10, 30 or 50 mM), and then analyzed by WST-1 assay to compare the effects on cell proliferation.
For orientation: Tetrazolium assays rely on reduction of a dye to a coloured formazan, in cell work by metabolically active cells.

The subject of the next assay is cancer cell lines. The conditions noted are these: reported (NPL 5); cited from earlier work.
In assay [11] the test system is U87 cells. Kind of assay: WST-1 cell proliferation assay, U87. The class given is cell-based, human. The conditions noted are these: 48 hours, 3, 5, 10, 30 or 50 mM. On the procedure: as §5
Assay [12] deals with U251 cells. Kind of assay: Apoptosis by flow cytometry after annexin V staining, U251. The format is cell-based, human. The conditions noted are these: doses that induce growth inhibition, 48 hours. How it is done: as §2
Assay [13] concerns glycolysis in cultured human PK-1 pancreatic cancer cells. The assay is described as follows: Glycolysis evaluation with XFe24 extracellular flux analyzer (OCR, ECAR). The format is cell-based. The text has this:
In the same manner as Example 2, an XFe24 extracellular flux analyzer (24-well) by Agilent Technologies (previously Seahorse Bioscience) was used to measure the oxygen consumption rate (OCR value) and extracellular acidification rate (ECAR value) of cultured human PK-1 pancreatic cancer cells and examine effects on the glycolysis.

For assay [14] the following is noted: known (PTL 2); cited from earlier work.

Turning to `O=C[C@H](O)[C@H](O)[C@H](O)[C@H](O)CO` [D-allose], in [1], the “fructose 1,6-diphosphate” value was “reducing”, the “fructose 1-phosphate in the polyol pathway” value is listed as “increased”, the “fructose 6-phosphate in the glycolysis” value was “increased” and the “glucose 6-phosphate in the glycolysis” value is “increased”. For the same compound, in [1], the “intracellular metabolic profile (PCA, heat map)” value is listed as “significantly altered intracellular metabolic profile”. Further, in the assay on cell cycle, the “G2 phase of the cell cycle” value was “delaying the “G2 phase” of the cell cycle”. The “apoptosis (annexin V)” value in assay [2] was “apoptosis was not produced”. For the same compound, in assay [3], the G0/G1 phase ratio entry is “slight increase”. The “attenuation of fluorogenic probe intensity in the cells” value in the assay with brain tumor cells is “notably inhibited attenuation of fluorescent probe intensity”. Besides, in the assay with U87 cells [4], the “induction of apoptosis (annexin V)” value is listed as “apoptosis is not induced”. Further, in assay [5], the “transition from the G0/1 phase to the S phase” value was “significant delaying of transition from the G0/I phase to the S phase” and the “transition to the G2/M phase” value was “This delaying effect was also exhibited for transition to the G2/M phase”. The “arrest of the cell cycle” value in the assay on U87 cells [6] is listed as “did not induce arrest of the cell cycle”. Moreover, in [7], the “fructose 1,6-diphosphate” value was “reducing”, the “fructose 1-phosphate in the polyol pathway” value is “increased”, the “fructose 6-phosphate in the glycolysis” value is reported as “increased” and the “glucose 6-phosphate in the glycolysis” value is given as “increased”. In [7], the “intracellular metabolic profile (PCA, heat map)” value is “significantly altered intracellular metabolic profile”. The “arrest of the cell cycle” value in the assay on U251 cells [8] is “did not induce arrest of the cell cycle”. The “effect on the cell cycle (tFucci(CA)5 fluorescence microscopy)” value in [9] is reported as “delay the cell cycle, primarily at transition from the G1 phase to the S phase”. In addition, the “cell proliferation (WST-1)” value with PK-1 cells (25 or 50 mM) is reported as “exhibited a cell growth inhibitory effect”. The “cell proliferation ability (WST-1)” value in the assay on U251 cells [10] is on record as “dose-dependent cell growth inhibitory effect”. Besides, the “proliferation of cancer cell lines” value with cancer cell lines is “can inhibit proliferation of cancer cell lines”. For the same compound, the “cell proliferation ability (WST-1)” value in the assay with U87 cells [11] is recorded as “dose-dependent cell growth inhibitory effect”. Besides, the “induction of apoptosis (annexin V)” value in the assay with U251 cells [12] is recorded as “apoptosis is not induced”. Moreover, in assay [13] (50 mM for 16 hours), the “glycolysis in the cells” value is given as “notably inhibited the glycolysis” and the “glycolytic capacity, or its reserve capacity” value is reported as “lowered”.
As for `OC[C@@H](O)[C@@H](O)[C@@H](O)[C@@H](O)CO` [allitol, (2S,3S,4R,5R)-hexane-1,2,3,4,5,6-hexaol], the “apoptosis (annexin V)” value in assay [2] was “no apoptosis had occurred”. Also, in [14], the fat accumulation entry is recorded as “fat accumulation-inhibiting effect”. In assay [5], the “transition from the G0/1 phase to the S phase” value was “significantly delayed the transition from the G0/1 phase to the S phase” and the “transition to the G2/M phase” value was “This delaying effect was also exhibited for transition to the G2/M phase”. Besides, the “cell proliferation (WST-1)” value in the assay on PK-1 cells (50 mM) is reported as “exhibited a cell proliferation inhibiting effect”. In addition, in assay [13] (50 mM for 18 hours), the “glycolysis in the cells” value was “inhibited the glycolysis” and the “glycolytic capacity, or its reserve capacity” value is “significantly lowered”.
